# According to article PMC5384220 (Nature Communications, 2017):
# Entries after “also recorded” stand apart in the source; their conditions may differ.
# Assays:
# KDM4A = biological target: T1, KDM4A (Homo sapiens, UniProt O75164); assay: AlphaScreen demethylase activity assay, KDM4A; type: biochemical; conditions: ratio of IC50 values
# T1 construct: KDM4A 1-359 E.coli; Hexa-His (N); made in house; host or cells: E. coli
# T1 sequence (O75164 1-359): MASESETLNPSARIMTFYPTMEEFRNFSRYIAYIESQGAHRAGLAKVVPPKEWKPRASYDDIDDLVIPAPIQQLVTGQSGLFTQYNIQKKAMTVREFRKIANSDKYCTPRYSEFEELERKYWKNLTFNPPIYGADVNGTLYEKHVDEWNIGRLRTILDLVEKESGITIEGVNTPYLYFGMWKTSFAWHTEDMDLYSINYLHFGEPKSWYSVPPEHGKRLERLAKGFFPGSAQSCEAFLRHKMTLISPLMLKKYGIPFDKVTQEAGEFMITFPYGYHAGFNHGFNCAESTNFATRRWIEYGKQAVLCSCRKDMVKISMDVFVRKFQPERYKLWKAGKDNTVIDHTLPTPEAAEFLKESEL
# Method: IC50 values for KDM2–6 were measured using an AlphaScreen assay as described. The appropriate KDM (5 μl) was pre-incubated with an inhibitor (0.1 μl in DMSO) or DMSO for 15 min before the addition of 5 μl mixture of biotinylated peptide substrates, 2OG, ferrous ammonium sulfate (1–10 μM final) and ascorbate (100 μM final) to initiate the demethylation reaction. The reaction was quenched with 5 μl of 30 mM EDTA at predetermined reaction times for each enzyme (initial rate). Demethylated product was detected by addition of 5 μl of AlphaScreen donor and acceptor beads (AlphaScreen General IgG Detection Kit, 0.02 mg ml^−1 final each) pre-incubated with antibody. The plates were read after 1 h incubation in a BMG Labtech Pherastar FS plate reader. Data were normalized to a no enzyme control and IC50 values were calculated using nonlinear regression curve fits using GraphPad Prism. Assay buffer (50 mM HEPES pH 7.5, BSA (0.1% w/v) and Tween-20 (0.01% v/v)) was used throughout, except for dilution of stock ferrous ammonium sulfate solutions where water was used. The enzyme, substrate and antibody concentrations used are described in Supplementary Table 3. A fluorescence-based LSD1 inhibitor screening assay kit (Cayman, 700120) was used for KDM1/LSD1 assay. Assays for prolyl hydroxylase domain 2 and factor inhibiting HIF using matrix-assisted laser desorption/ionization–time of flight MS were performed as previously described. Prism 5.0 (GraphPad) was used to generate and to fit dose–response curves. IC50 values were determined by plotting percentage inhibition versus compound concentration relative to positive (vehicle) and negative (no enzyme) controls, using normalized dose–response (variable slope) fit. The reported values are the mean of multiple experiments (n≥3). The formaldehyde dehydrogenase coupled KDM assay was used to determine the mode of inhibition, using 0.5 μM His-KDM4A1–359. Prism 5.0 (GraphPad) was used to fit in mix-mode inhibition, to determine the kinetic parameters. Binding constants for CPs and H3(1–15)K9me3 were measured using biolayer interferometry (OctetRed 384, ForteBio) in buffer (50 mM HEPES (pH 7.5), 150 mM NaCl, 10 μM ammonium iron(II) sulphate). His-KDM4A1–359-Bio (70 nM) was immobilized onto super streptavidin biosensor and subjected to different peptide concentrations in buffer. Data analysis was performed using ForteBio Data Aalysis (v6.4).
# Construct Expression [E] / nM [2OG] / µM [Fe(II)] / µM Peptide / nM Peptide sequence Antibody Source […]
# Supplementary Table 3. AlphaScreen assay parameters for 2OG oxygenases used for this study. The table was dapted from 10. Assays were performed at 2OG concentration near the 2OG Km values determined experimentally.11 All enzymes were expressed and purified as described.10-12
# His-KDM4A1-359 = biological target: T2, His-KDM4A1-359 (Homo sapiens, UniProt O75164); assay: Formaldehyde dehydrogenase coupled KDM assay (mode of inhibition); type: biochemical
# T2 construct: using 0.5 μM His-KDM4A1–359; made in house
# T2 sequence (O75164 1-359): T1 sequence (O75164 1-359)
# Method: The formaldehyde dehydrogenase coupled KDM assay was used to determine the mode of inhibition[34], using 0.5 μM His-KDM4A1–359. Prism 5.0 (GraphPad) was used to fit in mix-mode inhibition, to determine the kinetic parameters. Binding constants for CPs and H3(1–15)K9me3 were measured using biolayer interferometry (OctetRed 384, ForteBio) in buffer (50 mM HEPES (pH 7.5), 150 mM NaCl, 10 μM ammonium iron(II) sulphate). His-KDM4A1–359-Bio (70 nM) was immobilized onto super streptavidin biosensor and subjected to different peptide concentrations in buffer. Data analysis was performed using ForteBio Data Aalysis (v6.4).
# KDM4A1-359 was immobilized and analysed for binding to peptides at different concentrations.
# The concentration of KDM4A in the assay mixture was 0.5 µM.
# [1] = system: H3K9me3/H3K36me3 in HeLa cells; assay: Immunofluorescence of global histone methylation, 72 h dosing; type: cell-based; conditions: 72 h treatment
# Excerpt: Supplementary Figure 12. Immunofluorescence analysis of global histone methylation levels after 72hr dosing of cyclic peptides in HeLa cells. (a)-(c) Immunofluorescence analysis of HeLa cells dosed with cyclic peptides for 72 hrs. Maximum intensity projected images of 3D confocal z-stacks showing nuclei stained with […]
# DMSO and CP2 treated cells. Bar represents 50µm. Global H3K9me3 (d) and associated nuclei count for the […]
# staining, (h) global H3K4me3 and (i) global H3K27me3 staining. An increase in fluorescence intensity, […]
# over certain concentration ranges. Average +/- s.e.m (n > 100 cells) are shown except at concentrations of […]
# A generic 2OG oxygenase inhibitor 5-carboxy-8-
# Immunofluorescence (IF) assay […]
# with 0.5% FBS and 1% Pen-Strep. […]
# grade plate (Becton Dickinson) and left overnight to adhere. Cells were dosed with cyclic […]
# After 30min blocking (3% FBS in […]
# three times after each incubation. […]
# Image acquisition and analysis […]
# image immunostained cells in a 96-well plate configuration. For each well, the system […]
# The average intensity for each […]
# analysed using GraphPad Prism 5. […]
sequence,measurement,setting,value
DYVYNTRSGWRWYTC [CP2],Intra-subfamily selectivity KDM4A-C over KDM4D-E,KDM4A,> 100 fold
same,"Selectivity by IC50 for KDM4 over other JmjC-demethylase families, PHD2, FIH and KDM1A",KDM4A,> 160 fold
same,α (mixed-mode inhibition parameter),"His-KDM4A1-359; FDH assay, 0.5 µM KDM4A",4.73
same,Mode of inhibition with respect to H3K9me3,His-KDM4A1-359; kinetic analyses,competitive inhibitor
same,Change in global H3K9me3/H3K36me3 levels,[1],did not have any apparent effect; also recorded: no discernible changes
